Data from publication PMC8621172, “Manipulating Estrogenic/Anti-Estrogenic Activity of Triphenylethylenes towards Development of Novel Anti-Neoplastic SERMs” (International Journal of Molecular Sciences, 2021).
Where “and” joins values, the source holds several entries; their conditions need not be identical. Equal values may be shown once.

Experiments:
human ERα = target: T1, human ERα (Homo sapiens, UniProt P03372); experiment: Yeast estrogen screen (YES) assay, agonistic activity (β-galactosidase reporter); type: cell-based; conditions: triplicates; for EC50: YES assay; for Estrogenic Activity (relative β-galactosidase activity): compounds at 1 µM, compared to DMSO (set as 1)
T1 construct: host or cells: Saccharomyces cerevisiae
T1 sequence (P03372 1-595): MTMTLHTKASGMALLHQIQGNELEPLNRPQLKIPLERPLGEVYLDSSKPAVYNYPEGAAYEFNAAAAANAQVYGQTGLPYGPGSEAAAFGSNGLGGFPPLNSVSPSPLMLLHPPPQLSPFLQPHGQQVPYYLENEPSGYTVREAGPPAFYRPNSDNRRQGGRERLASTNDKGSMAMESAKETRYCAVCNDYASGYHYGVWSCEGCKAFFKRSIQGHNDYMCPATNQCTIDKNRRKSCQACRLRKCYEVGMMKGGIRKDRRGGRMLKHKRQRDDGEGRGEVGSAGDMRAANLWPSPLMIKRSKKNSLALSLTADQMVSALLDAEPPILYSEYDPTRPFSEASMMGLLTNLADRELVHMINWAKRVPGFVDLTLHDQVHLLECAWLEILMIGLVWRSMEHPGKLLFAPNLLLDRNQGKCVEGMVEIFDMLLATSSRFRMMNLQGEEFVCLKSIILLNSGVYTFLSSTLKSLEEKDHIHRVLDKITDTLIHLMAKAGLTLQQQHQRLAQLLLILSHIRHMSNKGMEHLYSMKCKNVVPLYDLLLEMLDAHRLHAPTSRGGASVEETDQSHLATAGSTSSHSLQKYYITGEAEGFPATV
Method: All synthesized compounds were tested for their relative activity in β-galactosidase in a yeast estrogen screen (YES) assay. Compounds were tested for their relative estrogenic/anti-estrogenic activities in comparison to positive and negative controls, respectively. YES assay is a gene reporter assay where the DNA sequence of human ERα is integrated into the yeast genome completed with an expression plasmid carrying estrogen response elements (ERE) in the promoter controlling the expression of the reporter gene lacZ (encoding the enzyme β-galactosidase). In the presence of estrogenic compounds, β-galactosidase is synthesized and secreted into the medium, where it converts the chromogenic substrate chlorophenol red-β-D-galactopyranoside (CRPG) from a yellow to a red product, whose absorbance is measured. […] Therefore, we decided to test the novel compounds in an organ-specific in vitro model using the human Ishikawa endometrial adenocarcinoma cell line.
All synthesized compounds were tested for their relative β-galactosidase activity in a yeast estrogen screen (YES) assay at a concentration of 1 µM using DMSO as control (set as 1).
The yeast estrogen receptor assay was supplied by Dr. J.P. Sumpter (Brunel University, Uxbridge, UK) and was used to determine the relative transactivation activity of the human ERα as formerly described. Briefly, Saccharomyces cerevisiae stably transfected with a human ERα and an estrogen-responsive element fused to the reporter gene lacZ encoding for β-galactosidase were treated with the test substances for about 48 h. The β-galactosidase enzymatic activity was measured in a colorimetric assay using a microplate photometer by hydrolysis of the substrate chlorophenol red β-D-galactopyranoside (Roche Diagnostics, Mannheim, Germany), which leads to the formation of chlorophenol red. This can be measured as an increased absorption at 540 nm. All compounds were diluted in DMSO. […] All compounds were tested in technical quadruplicates and biological triplicates. Statistical analysis was performed by analysis of variance (ANOVA) and Tukey’s post-hoc test with the significance level of p < 0.05.

60 NCI tumor cell lines = experiment: NCI-60 single-dose growth inhibition screen (SRB); type: cell-based, human; conditions: for inhibition at 10 µM: Homo sapiens, mean over 60 NCI tumor cell lines
Method: The anti-proliferative effects of the novel analogs were tested in vitro by the National Cancer Institute (NCI) on a panel of 60 human tumor cell lines at 10 µM. Compounds that elicited mean growth inhibition ≥50% were selected by the NCI for 5-dose testing.
Compounds were submitted to the Developmental Therapeutics Program (DTP) of the National Cancer Institute (NCI). The program uses a panel of 60 human tumor cell lines representing nine tissue types, including leukemia, non-small cell lung cancer (NSCLC), melanoma, colon cancer, ovarian cancer, CNS cancer, renal cancer, prostate cancer, and breast cancer, to screen for potential new anti-cancer agents. […] Primary screening of synthesized compounds was performed by testing a single high dose of 10 µM in the full NCI-60 panel. The percent growth of treated cells relative to the no-drug control and relative to the time zero number of cells was measured, and a mean graph was provided. The percentage inhibition was then calculated by subtracting the values obtained from 100.
All compounds were subjected to the NCI in vitro disease-oriented human cells screening panel assay. The human tumor cell lines of the cancer-screening panel are grown in RPMI 1640 medium containing 5% fetal bovine serum and 2 mM L-glutamine. For a typical screening experiment, cells are inoculated into 96-well microtiter plates in 100 μL at plating densities ranging from 5000 to 40,000 cells/well depending on the doubling time of individual cell lines. After cell inoculation, the microtiter plates are incubated at 37 °C, 5% CO2, 95% air, and 100% relative humidity for 24 h prior to the addition of experimental drugs. After 24 h, two plates of each cell line are fixed in situ with TCA to represent a measurement of the cell population for each cell line at the time of drug addition. Experimental drugs are solubilized in dimethyl sulfoxide at 400-fold the desired final maximum test concentration and stored frozen prior to use. At the time of drug addition, an aliquot of frozen concentrate is thawed and diluted to twice the desired final maximum test concentration with complete medium containing 50 μg/mL gentamicin. Additional four, 10-fold, or ½ log serial dilutions are made to provide a total of five drug concentrations plus control. Aliquots of 100 μL of these different drug dilutions are added to the appropriate microtiter wells already containing 100 μL of medium, resulting in the required final drug concentrations. Following drug addition, the plates are incubated for an additional 48 h at 37 °C, 5% CO2, 95% air, and 100% relative humidity. For adherent cells, the assay is terminated by the addition of cold TCA. Cells are fixed in situ by the gentle addition of 50 μL of cold 50% (w/v) TCA (final concentration, 10% TCA) and incubated for 60 min at 4 °C. The supernatant is discarded, and the plates are washed five times with tap water and air-dried. Sulforhodamine B (SRB) solution (100 μL) at 0.4% (w/v) in 1% acetic acid is added to each well, and plates are incubated for 10 min at room temperature. After staining, unbound dye is removed by washing five times with 1% acetic acid, and the plates are air-dried. Bound stain is subsequently solubilized with a 10 mM trizma base, and the absorbance is read on an automated plate reader at a wavelength of 515 nm. For suspension cells, the methodology is the same except that the assay is terminated by fixing settled cells at the bottom of the wells by gently adding 50 μL of 80% TCA (final concentration, 16% TCA). Compounds are screened at a dose of 10 µM, hits showing mean growth inhibition over 60 cell lines >50% are escalated for 5-dose screening assay.

Compound: COc1ccc(C(C)=C(c2ccc(Cl)cc2)c2ccc(OCCN3CCCCCC3)cc2)cc1F [Compound 19, E/Z-1-(2-{4-[1-(4-Chlorophenyl)-2-(3-fluoro-4-methoxyphenyl)-propenyl]-phenoxy}-ethyl)-azepane]
- EC50 (human ERα): 407 ± 86 nM
- Estrogenic Activity (relative β-galactosidase activity) (human ERα): 3.22 and 3.22 ± 1.22
- inhibition at 10 µM (60 NCI tumor cell lines): 60.8%

Compound: COc1ccc(C(C)=C(c2ccc(Cl)cc2)c2ccc(OCCN(C)C)cc2)cc1F [Compound 20, E/Z-(2-{4-[1-(4-Chlorophenyl)-2-(3-fluoro-4-methoxyphenyl)-propenyl]-phenoxy}-ethyl)-dimethyl-amine]
- Estrogenic Activity (relative β-galactosidase activity) (human ERα): 2.40 ± 0.64
- inhibition at 10 µM (60 NCI tumor cell lines): 47%

Compound: CCN(CC)CCOc1ccc(C(=C(C)c2ccc(OC)c(F)c2)c2ccc(Cl)cc2)cc1 [Compound 21, E/Z-(2-{4-[1-(4-Chlorophenyl)-2-(3-fluoro-4-methoxyphenyl)-propenyl]-phenoxy}-ethyl)-diethyl-amine]
- EC50 (human ERα): 735 ± 13 nM
- Estrogenic Activity (relative β-galactosidase activity) (human ERα): 2.40 ± 0.77
- inhibition at 10 µM (60 NCI tumor cell lines): 31.2%

Compound: COc1cc(C(C)=C(c2ccc(Cl)cc2)c2ccc(OCCCN(C)C)cc2)ccc1F [Compound 22, E/Z-(3-{4-[1-(4-Chlorophenyl)-2-(4-fluoro-3-methoxyphenyl)-propenyl]-phenoxy}-propyl)-dimethyl-amine]
- Estrogenic Activity (relative β-galactosidase activity) (human ERα): 1.87 ± 0.74
- inhibition at 10 µM (60 NCI tumor cell lines): 18.6%

Compound: COc1cc(C(C)=C(c2ccc(Cl)cc2)c2ccc(OCCN3CCCC3)cc2)ccc1F [Compound 23, E/Z-1-(2-{4-[1-(4-Chlorophenyl)-2-(4-fluoro-3-methoxyphenyl)-propenyl]-phenoxy}-ethyl)-pyrrolidine]
- Estrogenic Activity (relative β-galactosidase activity) (human ERα): 1.41 ± 1.01
- inhibition at 10 µM (60 NCI tumor cell lines): 46.9%

Compound: COc1cc(C(C)=C(c2ccc(Cl)cc2)c2ccc(OCCN3CCCCC3)cc2)ccc1F [Compound 24, E/Z-1-(2-{4-[1-(4-Chlorophenyl)-2-(4-fluoro-3-methoxyphenyl)-propenyl]-phenoxy}-ethyl)-piperidine]
- Estrogenic Activity (relative β-galactosidase activity) (human ERα): 1.19 ± 0.20
- inhibition at 10 µM (60 NCI tumor cell lines): 29.2%

Compound: COc1cc(C(C)=C(c2ccc(Cl)cc2)c2ccc(OCCN3CCOCC3)cc2)ccc1F [Compound 25, E/Z-4-(2-{4-[1-(4-Chlorophenyl)-2-(4-fluoro-3-methoxyphenyl)-propenyl]-phenoxy}-ethyl)-morpholine]
- Estrogenic Activity (relative β-galactosidase activity) (human ERα): 1.31 ± 0.30
- anti-proliferative activity (in words) (60 NCI tumor cell lines; 10 µM, NCI-60 panel and MCF-7): lacked anti-proliferative activity
- inhibition at 10 µM (60 NCI tumor cell lines): 12.8%

Compound: COc1cc(C(C)=C(c2ccc(Cl)cc2)c2ccc(OCCN3CCCCCC3)cc2)ccc1F [Compound 26, E/Z-1-(2-{4-[1-(4-Chlorophenyl)-2-(4-fluoro-3-methoxyphenyl)-propenyl]-phenoxy}-ethyl)-azepane]
- Estrogenic Activity (relative β-galactosidase activity) (human ERα): 1.78 ± 0.64
- inhibition at 10 µM (60 NCI tumor cell lines): 28.3%

Compound: COc1cc(C(C)=C(c2ccc(Cl)cc2)c2ccc(OCCN(C)C)cc2)ccc1F [Compound 27, E/Z-(2-{4-[1-(4-Chlorophenyl)-2-(4-fluoro-3-methoxyphenyl)-propenyl]-phenoxy}-ethyl)-dimethyl-amine]
- Estrogenic Activity (relative β-galactosidase activity) (human ERα): 1.15 ± 0.17
- inhibition at 10 µM (60 NCI tumor cell lines): 47.2%

Compound: CCN(CC)CCOc1ccc(C(=C(C)c2ccc(F)c(OC)c2)c2ccc(Cl)cc2)cc1 [Compound 28, E/Z-(2-{4-[1-(4-Chlorophenyl)-2-(4-fluoro-3-methoxyphenyl)-propenyl]-phenoxy}-ethyl)-diethyl-amine]
- Estrogenic Activity (relative β-galactosidase activity) (human ERα): 1.37 ± 0.39
- inhibition at 10 µM (60 NCI tumor cell lines): 92.3%
